Activity calls are given as the source filed them. The rule behind the calls is not given here.

Consider two compounds from ChEMBL document CHEMBL1158521, “Photoactive ligands probing the sweet taste receptor. Design and synthesis of highly potent diazirinyl D-phenylalanine derivatives” (Bioorg Med Chem Lett, 2010).

For assay [1], the target named is T1, T1R2/T1R3 (Homo sapiens) (UniProt Q8TE23+Q7RTX0). The assay is described as follows: Activity at human T1R2/T1R3 expressed in HEK293T cells co-expressing Galpha-16-gust44 assessed as F340/F380 ratio at 1.25 mM. It counts as cell-based. Particulars: HEK-293T.
The target in assay [2] is T1, T1R2/T1R3 (Homo sapiens). The assay is described as follows: Activity at human T1R2/T1R3 expressed in HEK293T cells co-expressing Galpha-16-gust44 assessed as F340/F380 ratio at 1.25 mM in presence of T1R2/T1R3 antagonist lactisole. It counts as functional, cell-based. To be noted: HEK-293T.

As to `N[C@H](Cc1cccc(C2(C(F)(F)F)N=N2)c1)C(=O)O`, in assay [1], the result was Active. Besides, in assay [2], the outcome was inactive.

Consider `N[C@H](Cc1ccc(C2(C(F)(F)F)N=N2)cc1)C(=O)O`, for which the result in assay [1] was Active. The result in assay [2] was inactive.
